Source: publication PMC9643456, “Matching amino acids membrane preference profile to improve activity of antimicrobial peptides” (Communications Biology, 2022)
Like-named read-outs stand apart in the source and are kept apart here. Square brackets hold non-standard residues; d marks the D form. Ends that are not written are not given here. Peptide text beside a SMILES is read from it. dBta = N[C@H](Cc1csc2ccccc12)C(=O)O

Tested on: human red blood cells
Assay: Hemolytic activity
Assay type: cell-based
Procedure: Human red blood cells (Zenbio, North Carolina, USA) and peptides were separately diluted in PBS (blood concentration, 8%). The blood cell and peptide solutions were then mixed in 96-well polyethylene plates (SPL, Gyeonggi-do, Korea) and incubated for 18 h at 37 °C. The final concentration of human red blood cells was 4%, while peptide concentrations were 100 μM, 50 μM, 25 μM, 12.5 μM, 6.25 μM, 3.13 μM, 1.56 μM, and 0.78 μM. After incubation, the plates were centrifuged at 1000 × g for 5 min, and the supernatants were transferred to 96-well polyethylene plates. Hemolysis levels were determined by measuring the absorbance at 540 nm with a SpectraMax plate spectrophotometer (Molecular Devices, California, USA). Control samples were treated with 1% Triton X-100 (for 100% hemolysis) or solution with 0 μM peptide (for 0% hemolysis) and melittin (for positive control). Each experiment was performed in triplicate.

Compound	Hemolysis percent, 25 μM (red cells of human, 18 h)	Hemolysis percent, 50 μM (red cells of human, 18 h, 50)	Hemolysis percent, 100 μM (red cells of human, 18 h)	Hemolysis percent, 50 μM
CC[C@@H](C)[C@@H](NC(=O)[C@@H](Cc1c[nH]c2ccccc12)NC(=O)[C@@H](CC(C)C)NC(=O)[C@@H](CC(C)C)NC(=O)[C@H](N)Cc1c[nH]c2ccccc12)C(=O)N[C@H](C)C(=O)N[C@H](CC(C)C)C(=O)N[C@H](CCCNC(=N)N)C(=O)N[C@H](CCCCN)C(=O)N[C@H](CCCCN)C(N)=O [WCopW7] (H-[dW][dL][dL][dW][dI][dA][dL][dR][dK][dK]-NH2)	7.25%	10.05%	14.99%	
CC[C@@H](C)[C@@H](NC(=O)[C@@H](CC(C)C)NC(=O)[C@H](N)Cc1c[nH]c2ccccc12)C(=O)N[C@H](Cc1c[nH]c2ccccc12)C(=O)N[C@@H](C(=O)N[C@H](Cc1ccc(O)cc1)C(=O)N[C@H](CCCNC(=N)N)C(=O)N[C@H](CCCCN)C(=O)N[C@H](CCCCN)C(=O)N[C@H](CCCNC(=N)N)C(N)=O)C(C)C [WCopW27] (H-[dW][dL][dI][dW][dV][dY][dR][dK][dK][dR]-NH2)	1.82%	3.95%	7.43%	
CC[C@@H](C)[C@@H](NC(=O)[C@@H](Cc1c[nH]c2ccccc12)NC(=O)[C@H](NC(=O)[C@@H](CC(C)C)NC(=O)[C@H](N)Cc1c[nH]c2ccccc12)C(C)C)C(=O)N[C@H](Cc1c[nH]c2ccccc12)C(=O)N[C@H](CCCNC(=N)N)C(=O)N[C@H](CCCNC(=N)N)C(=O)N[C@H](CCC(N)=O)C(=O)N[C@H](CCCNC(=N)N)C(N)=O [WCopW31] (H-[dW][dL][dV][dW][dI][dW][dR][dR][dQ][dR]-NH2)	0.35%	1.82%	6.88%	
CC[C@@H](C)[C@@H](NC(=O)[C@@H](Cc1c[nH]c2ccccc12)NC(=O)[C@H](NC(=O)[C@@H](CC(C)C)NC(=O)[C@H](N)Cc1c[nH]c2ccccc12)C(C)C)C(=O)N[C@H](Cc1c[nH]c2ccccc12)C(=O)N[C@H](CCCNC(=N)N)C(=O)N[C@H](CCCNC(=N)N)C(=O)N[C@H](CCCCN)C(=O)N[C@H](CCCNC(=N)N)C(N)=O [WCopW28] (H-[dW][dL][dV][dW][dI][dW][dR][dR][dK][dR]-NH2)	2.33%	1.97%	5.26%	
CC[C@@H](C)[C@@H](NC(=O)[C@@H](Cc1c[nH]c2ccccc12)NC(=O)[C@@H](CC(C)C)NC(=O)[C@@H](CC(C)C)NC(=O)[C@H](N)Cc1csc2ccccc12)C(=O)NCC(=O)N[C@H](CC(C)C)C(=O)N[C@H](CCCNC(=N)N)C(=O)N[C@H](CCCCN)C(=O)N[C@H](CCCCN)C(=O)N[C@H](CCCNC(=N)N)C(N)=O [WCopW16] (H-[dBta][dL][dL][dW][dI]G[dL][dR][dK][dK][dR]-NH2)	2.77%	5.57%	10.59%	
WLLWIALRKKR-NH2 [WCopW2]	8.19%	11.43%	23.10%	
CC[C@@H](C)[C@@H](NC(=O)[C@@H](Cc1c[nH]c2ccccc12)NC(=O)[C@H](NC(=O)[C@@H](CC(C)C)NC(=O)[C@H](N)Cc1c[nH]c2ccccc12)C(C)C)C(=O)N[C@H](Cc1ccc(O)cc1)C(=O)N[C@H](CCCNC(=N)N)C(=O)N[C@H](CCCNC(=N)N)C(=O)N[C@H](CCCNC(=N)N)C(N)=O [WCopW33] (H-[dW][dL][dV][dW][dI][dY][dR][dR][dR]-NH2)	3.49%	6.35%	9.93%	
CC(C)[C@@H](NC(=O)[C@H](N)Cc1c[nH]c2ccccc12)C(=O)N[C@@H](C(=O)N[C@H](Cc1c[nH]c2ccccc12)C(=O)N[C@@H](C(=O)N[C@H](Cc1c[nH]c2ccccc12)C(=O)N[C@H](CCCNC(=N)N)C(=O)N[C@H](CCCNC(=N)N)C(=O)N[C@H](CCCNC(=N)N)C(N)=O)C(C)C)C(C)C [WCopW40] (H-[dW][dV][dV][dW][dV][dW][dR][dR][dR]-NH2)	0.45%	0.59%	2.14%	
CC[C@@H](C)[C@@H](NC(=O)[C@@H](Cc1c[nH]c2ccccc12)NC(=O)[C@H](NC(=O)[C@@H](CC(C)C)NC(=O)[C@H](N)Cc1c[nH]c2ccccc12)C(C)C)C(=O)N[C@H](Cc1ccc(O)cc1)C(=O)N[C@H](CCCNC(=N)N)C(=O)N[C@H](CCCCN)C(=O)N[C@H](CCCCN)C(=O)N[C@H](CCCNC(=N)N)C(N)=O [WCopWVY4] (H-[dW][dL][dV][dW][dI][dY][dR][dK][dK][dR]-NH2)	1.86%	2.57%	5.57%	
CC[C@@H](C)[C@@H](NC(=O)[C@@H](Cc1c[nH]c2ccccc12)NC(=O)[C@@H](CC(C)C)NC(=O)[C@@H](CC(C)C)NC(=O)[C@H](N)Cc1c[nH]c2ccccc12)C(=O)N[C@H](C)C(=O)N[C@H](CC(C)C)C(=O)N[C@H](CCCNC(=N)N)C(=O)N[C@H](CCCCN)C(=O)N[C@H](CCCCN)C(=O)N[C@H](CCCNC(=N)N)C(N)=O [WCopW3] (H-[dW][dL][dL][dW][dI][dA][dL][dR][dK][dK][dR]-NH2)	3.64%	9.36%	13.37%	
CC[C@@H](C)[C@@H](NC(=O)[C@@H](Cc1c[nH]c2ccccc12)NC(=O)[C@H](NC(=O)[C@@H](CC(C)C)NC(=O)[C@H](N)Cc1c[nH]c2ccccc12)C(C)C)C(=O)N[C@H](Cc1c[nH]c2ccccc12)C(=O)N[C@H](CCC(N)=O)C(=O)N[C@H](CCCNC(=N)N)C(=O)N[C@H](CCCNC(=N)N)C(=O)N[C@H](CCCNC(=N)N)C(N)=O [WCopW30] (H-[dW][dL][dV][dW][dI][dW][dQ][dR][dR][dR]-NH2)	0.32%	2.74%	4.92%	
CC[C@@H](C)[C@@H](NC(=O)[C@@H](Cc1c[nH]c2ccccc12)NC(=O)[C@@H](CC(C)C)NC(=O)[C@@H](CC(C)C)NC(=O)[C@H](N)Cc1c[nH]c2ccccc12)C(=O)N[C@H](C)C(=O)N[C@H](CC(C)C)C(=O)N[C@H](CCCNC(=N)N)C(=O)N[C@H](CCCCN)C(=O)N[C@H](CCCCN)C(=O)N[C@H](CCCNC(=N)N)C(N)=O [WCopW4] (H-[dW][dL][dL][dW][dI][dA][dL][dR][dK][dK][dR]-NH2)	5.94%	9.85%	18.84%	
CC[C@@H](C)[C@@H](NC(=O)[C@@H](Cc1c[nH]c2ccccc12)NC(=O)[C@H](NC(=O)[C@@H](CC(C)C)NC(=O)[C@H](N)Cc1c[nH]c2ccccc12)C(C)C)C(=O)N[C@H](Cc1c[nH]c2ccccc12)C(=O)N[C@H](CCCNC(=N)N)C(=O)N[C@H](CCCNC(=N)N)C(=O)N[C@H](CCC(=O)O)C(=O)N[C@H](CCC(N)=O)C(N)=O [WCopW34] (H-[dW][dL][dV][dW][dI][dW][dR][dR][dE][dQ]-NH2)	-0.18%	-0.17%	-0.14%	
CC[C@@H](C)[C@@H](NC(=O)[C@@H](Cc1c[nH]c2ccccc12)NC(=O)[C@H](NC(=O)[C@@H](CC(C)C)NC(=O)[C@H](N)Cc1c[nH]c2ccccc12)C(C)C)C(=O)N[C@H](Cc1ccc(O)cc1)C(=O)N[C@H](CC(C)C)C(=O)N[C@H](CCCNC(=N)N)C(=O)N[C@H](CCCCN)C(=O)N[C@H](CCCCN)C(=O)N[C@H](CCCNC(=N)N)C(N)=O [WCopWVY] (H-[dW][dL][dV][dW][dI][dY][dL][dR][dK][dK][dR]-NH2)	2.47%	4.51%	7.25%	
CC(C)C[C@@H](NC(=O)[C@H](N)Cc1c[nH]c2ccccc12)C(=O)N[C@@H](C(=O)N[C@H](Cc1c[nH]c2ccccc12)C(=O)N[C@H](CO)C(=O)N[C@H](Cc1c[nH]c2ccccc12)C(=O)N[C@H](CCCNC(=N)N)C(=O)N[C@H](CCCNC(=N)N)C(=O)N[C@H](CCCNC(=N)N)C(N)=O)C(C)C [WCopW39] (H-[dW][dL][dV][dW][dS][dW][dR][dR][dR]-NH2)	0.09%	0.06%	0.36%	
CC[C@@H](C)[C@@H](NC(=O)[C@@H](Cc1c[nH]c2ccccc12)NC(=O)[C@@H](CC(C)C)NC(=O)[C@H](N)CC(C)C)C(=O)N[C@H](C)C(=O)N[C@H](CC(C)C)C(=O)N[C@H](CCCCN)C(=O)N[C@H](CCCCN)C(=O)N[C@H](CCCCN)C(=O)N[C@H](CCCCN)C(N)=O [WCopW12] (H-[dL][dL][dW][dI][dA][dL][dK][dK][dK][dK]-NH2)	0.98%	0.98%	0.98%	
CC(C)C[C@@H](NC(=O)[C@H](N)Cc1c[nH]c2ccccc12)C(=O)N[C@@H](C(=O)N[C@H](Cc1c[nH]c2ccccc12)C(=O)N[C@@H](C(=O)N[C@H](Cc1ccc(O)cc1)C(=O)N[C@H](CC(C)C)C(=O)N[C@H](CCCNC(=N)N)C(=O)N[C@H](CCCCN)C(=O)N[C@H](CCCCN)C(=O)N[C@H](CCCNC(=N)N)C(N)=O)C(C)C)C(C)C [WCopWVY2] (H-[dW][dL][dV][dW][dV][dY][dL][dR][dK][dK][dR]-NH2)	3.46%	6.02%	10.12%	
CC(C)C[C@@H](NC(=O)[C@H](N)Cc1c[nH]c2ccccc12)C(=O)N[C@@H](C(=O)N[C@H](Cc1c[nH]c2ccccc12)C(=O)N[C@H](CC(=O)O)C(=O)N[C@H](Cc1c[nH]c2ccccc12)C(=O)N[C@H](CCCNC(=N)N)C(=O)N[C@H](CCCNC(=N)N)C(=O)N[C@H](CCCNC(=N)N)C(N)=O)C(C)C [WCopW38] (H-[dW][dL][dV][dW][dD][dW][dR][dR][dR]-NH2)		0.06 ±0.06%		0.06%
